This experiment deals with T1, ZAP-70 (Homo sapiens, UniProt P43403).
T1 construct: endogenous in cells; host or cells: cell lysate
T1 sequence (P43403 1-619): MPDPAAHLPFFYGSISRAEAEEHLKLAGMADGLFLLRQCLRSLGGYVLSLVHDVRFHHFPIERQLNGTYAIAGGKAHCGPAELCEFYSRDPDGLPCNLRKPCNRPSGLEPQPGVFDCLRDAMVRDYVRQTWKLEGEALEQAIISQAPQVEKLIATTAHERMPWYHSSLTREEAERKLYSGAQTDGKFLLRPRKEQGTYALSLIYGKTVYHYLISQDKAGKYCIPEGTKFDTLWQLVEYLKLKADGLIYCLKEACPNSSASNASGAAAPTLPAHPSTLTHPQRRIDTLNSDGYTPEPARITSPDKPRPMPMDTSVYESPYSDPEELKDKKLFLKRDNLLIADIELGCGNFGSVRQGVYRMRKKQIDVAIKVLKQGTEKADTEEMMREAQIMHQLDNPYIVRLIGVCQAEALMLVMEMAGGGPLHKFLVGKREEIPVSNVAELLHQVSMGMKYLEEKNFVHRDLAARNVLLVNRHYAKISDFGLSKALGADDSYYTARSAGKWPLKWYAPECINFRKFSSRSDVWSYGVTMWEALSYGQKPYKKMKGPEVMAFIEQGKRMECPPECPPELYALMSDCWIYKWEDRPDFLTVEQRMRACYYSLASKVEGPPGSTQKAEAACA
Nature of the experiment: ZAP-70 kinobeads assay. To be noted: cell lysate, affinity matrix with immobilized aminopyrido-pyrimidine ligand 24, dot blot detection. Format: binding. The method, then: The compounds of the present invention as described in the previous examples can be tested in the ZAP-70 kinobeads assay as described (EP-A 1862802 and WO-A 2007/137867). Briefly, test compounds (at various concentrations) and the affinity matrix with the immobilized aminopyrido-pyrimidine ligand 24 are added to cell lysate aliquots and allowed to bind to the proteins in the lysate sample. After the incubation time the beads with captured proteins are separated from the lysate. Bound proteins are then eluted and the presence ZAP-70 is detected and quantified using a specific antibody in a dot blot procedure and the Odyssey infrared detection system.

As usually defined, the IC50 is the concentration needed to halve the response being measured. A high value points to lower potency. Regarding `COc1cc(Nc2ncc(F)c(Nc3cccc(C)c3N(CCC(N)=O)S(C)(=O)=O)n2)cc(OC)c1OC` [Example 23, 3-(N-(2-(5-fluoro-2-(3,4,5-trimethoxyphenylamino)pyrimidin-4-ylamino)-6-methylphenyl)methylsulfonamido)propanamide], the IC50 is 1 to 10 µM.
Next, `COc1ccc(Nc2nc(Nc3cc(OC)c(OC)c(OC)c3)ncc2Cl)c(N(C[C@@H]2CCC(=O)N2)S(C)(=O)=O)c1` [Example 4, (S)—N-(2-(5-chloro-2-(3,4,5-trimethoxyphenylamino)pyrimidin-4-ylamino)-5-methoxyphenyl)-N-((5-oxopyrrolidin-2-yl)methyl)methanesulfonamide]: at most 0.1 µM; `COc1ccc(Nc2nc(Nc3cc(OC)c(OC)c(OC)c3)ncc2Cl)c(N(CCCNC(C)=O)S(C)(=O)=O)c1` [Example 29, N-(3-(N-(2-(5-chloro-2-(3,4,5-trimethoxyphenylamino)pyrimidin-4-ylamino)-5-methoxyphenyl)methylsulfonamido)propyl)acetamide]: at most 0.1 µM; `COCCN(c1c(C)cccc1Nc1nc(Nc2cc(OC)c(OC)c(OC)c2)ncc1F)S(C)(=O)=O` [Example 13]: 1 to 10 µM.
Next, `COc1cc(Nc2ncc(F)c(Nc3cccc(C)c3N(CCNC=O)S(C)(=O)=O)n2)cc(OC)c1OC` [Example 20, N-(2-(N-(2-(5-fluoro-2-(3,4,5-trimethoxyphenylamino)pyrimidin-4-ylamino)-6-methylphenyl)methylsulfonamido)ethyl)formamide]: 0.1 to 1 µM; `COc1ccc(Nc2nc(Nc3ccnn3C)ncc2Cl)c(N(C[C@H]2CCC(=O)N2)S(C)(=O)=O)c1` [Example 31]: 1 to 10 µM; `COc1cc(Nc2ncc(F)c(Nc3cccc(C)c3N(CCCNC=O)S(C)(=O)=O)n2)cc(OC)c1OC` [Example 28, N-(3-(N-(2-(5-fluoro-2-(3,4,5-trimethoxyphenylamino)pyrimidin-4-ylamino)-6-methylphenyl)methylsulfonamido)propyl)formamide]: 0.1 to 1 µM.
The same measure for `COc1ccc(Nc2nc(Nc3cc(OC)c(OC)c(OC)c3)ncc2Cl)c(N(CC#N)S(C)(=O)=O)c1` [Example 6, N-(2-(5-chloro-2-(3,4,5-trimethoxyphenylamino)pyrimidin-4-ylamino)-5-methoxyphenyl)-N-(cyanomethyl)methanesulfonamide]: at most 0.1 µM; for `COc1ccc(Nc2nc(Nc3cc(OC)c(OC)c(OC)c3)ncc2Cl)c(N(CCN)S(C)(=O)=O)c1` [Example 7, N-(2-aminoethyl)-N-(2-(5-chloro-2-(3,4,5-trimethoxyphenylamino)pyrimidin-4-ylamino)-5-methoxyphenyl)methanesulfonamide]: at most 0.1 µM.
As to `COc1cc(Nc2ncc(F)c(Nc3cccc(C)c3N(CCCC#N)S(C)(=O)=O)n2)cc(OC)c1OC` [Example 24, N-(3-cyanopropyl)-N-(2-(5-fluoro-2-(3,4,5-trimethoxyphenylamino)pyrimidin-4-ylamino)-6-methylphenyl)methanesulfonamide], the IC50 lay in the range of 1 to 10 µM.

Source of the values: patent US20120165332A1, “SULFONAMIDES AND SULFAMIDES AS ZAP-70 INHIBITORS” (Cellzome Limited, priority 2009, published 2012).
